Experimental data as given in patent US20230040386A1, “URSODEOXYCHOLIC ACID-CONTAINING AGENT FOR TREATING OR PREVENTING PRESBYOPIA” (priority 2018, published 2023).

Assays:
[1] = tested on: anterior segment of the eye; experiment: Ocular Irritation Test (McDonald-Shadduck method, lens observation, histopathology); format: in vivo, Japanese White rabbits
Method: A vehicle (aqueous solution) comprising 0.1% (w/v) of ethyl pyruvate, 0.269% (w/v) of sodium dihydrogenphosphate monohydrate ([…]), 0.433% (w/v) of disodium hydrogenphosphate (Na2HPO4), 0.2% (w/v) of hydroxypropyl methylcellulose, 0.5% (w/v) of NaCl was prepared.
Group treated with an ophthalmic suspension of ursodeoxycholic acid 1% (w/v), 3% (w/v), and 10% (w/v) ursodeoxycholic acid ophthalmic suspensions were prepared in the same manner as in the above pharmacological tests. These ophthalmic suspensions and the vehicle were each instilled into the left eye of Japanese White rabbits at a dose of 50 μL/eye with pipette twice per day at a 6-hour interval for 2 weeks. One hour after the final instillation, ocular irritation of anterior segment of the eye was evaluated according to the McDonald-Shadduck method, and the lens was observed. The contralateral eye was untreated.
The ocular irritation of anterior segment of the eye was scored according to the following criteria:
+1: mild; +2: moderate; +3: severe.

lens [2] = experiment: Pharmacological Test 5: lens elasticity, 1% ursodeoxycholic acid once-daily for 1, 3, 7, 10 or 14 days; format: in vivo, C57BL/6J mice; conditions: for Lens elasticity improvement: 1% sample, QD, 24 h after final instillation, vs untreated group
Method: A vehicle comprising 0.1% (w/v) of ethyl pyruvate, 0.269% (w/v) of sodium dihydrogenphosphate monohydrate (NaH2PO4H2O), 0.433% (w/v) of disodium hydrogenphosphate (Na2HPO4), 0.2% (w/v) of hydroxypropyl methylcellulose, 0.5% (w/v) of NaCl was prepared. Ursodeoxycholic acid was sonicated with the addition of the vehicle to prepare a 1.0% (w/v) suspension. The total amount of the sample to be used in one day was prepared before use. 1) The test sample (2.5 μL/eye) was instilled into both eyes of 8-month-old C57BL/6J mice with a Pipetman once per day (QD; around 13:30) for 1, 3, 7, 10, or 14 days. 2) Twenty-four hours after the final instillation, the mice were euthanized by carbon dioxide inhalation, and then the eyeballs were extracted and rinsed with Hank's balanced salt solution (HBSS). 3) The sclera near the optic nerve was cut with a razor, the lens was removed through the incision, and the removed lens was immersed in HBSS. 4) The lens was placed on a glass slide, and an all-in-one fluorescence microscope BZ-9000 (Keyence) was used to capture an image of the lens (image a). 5) Next, one cover glass (Corning^(registered trade mark) 22×22 mm Square) was placed on the lens, and an image in which the thickness of the lens changed due to the weight was similarly captured (Image b). 6) A change in the lens diameter was calculated from Equation 1 wherein the lens diameter of Image a is subtracted from the lens diameter of Image b, as described below. Then, the lens elasticity improvement of each sample group compared with the […] was calculated from Equation 2 described below. Each mean of the untreated group and each ursodeoxycholic acid sample group was based on 9 or 10 eyes. Change in lens diameter=Lens diameter in Image b of each test sample−Lens diameter in Image a of each test sample (Equation 1) Lens elasticity improvement of each sample group=Mean change in lens diameter of each Test sample group−Mean change in lens diameter of Untreated group (Equation 2)

lens [3] = experiment: Pharmacological Test 2: lens elasticity after instillation of sodium ursodeoxycholate; format: in vivo, C57BL/6J mice; conditions: 1.5% (w/v) sample, 2.5 μL/eye, 3 times per day, 12 to 15 days, vs vehicle control
Method: A vehicle comprising 0.1% (w/v) of ethyl pyruvate, 0.269% (w/v) of sodium dihydrogenphosphate monohydrate (NaH2PO4H2O), 0.433% (w/v) of disodium hydrogenphosphate (Na2HPO4), 0.2% (w/v) of hydroxypropyl methylcellulose, 0.5% (w/v) of NaCl was prepared. Sodium ursodeoxycholate was sonicated with the addition of the vehicle to prepare a 1.5% (w/v) suspension. The resulting 1.5% (w/v) suspension was diluted with the vehicle to prepare a 0.5% (w/v) suspension. Further, the resulting 0.5% (w/v) suspension was diluted with the vehicle to prepare a 0.15% (w/v) suspension. The total amount of each sample to be used in one day was prepared before use. EV06 was sonicated with the addition of the vehicle to prepare a 1.5% (w/v) solution. The total amount of the sample to be used in one day was prepared before use. 1) Each test sample (2.5 μL/eye) was instilled into the right eye of 8-month-old C57BL/6J mice with a Pipetman 3 times per day (around 9:00, 13:00 and 17:00) for 12 to 15 days. 2) After the final instillation, the mice were euthanized by carbon dioxide inhalation, and then the eyeballs were extracted and rinsed with Hank's balanced salt solution (HBSS)). 3) The sclera near the optic nerve was cut with a razor, the lens was removed through the incision, and the removed lens was immersed in HBSS. 4) The lens was placed on a glass slide, and an all-in-one fluorescence microscope BZ-9000 (Keyence) was used to capture an image of the lens (Image a). 5) Next, one cover glass (Corning^(registered trade mark) 22×22 mm Square) was placed on the lens, and an image in which the thickness of the lens changed due to the weight was similarly captured (Image b). 6) A change in the lens diameter was calculated from Equation 1 wherein the lens diameter of Image a is subtracted from the lens diameter of Image b, as described below. Then, the lens elasticity improvement of each sample group compared with the vehicle control group was calculated from Equation 2 described below. The mean of the vehicle control group was based on 5 eyes, the mean of each sodium ursodeoxycholate sample group was based on 10 eyes, and the mean of the EV06 sample group was based on 10 eyes. Change in lens diameter Lens diameter in image b of each test sample−Lens diameter in Image a of each test sample (Equation 1) Lens elasticity improvement of each sample group=Mean change in lens diameter of each Test sample group−Mean change in lens diameter of Vehicle control group (Equation 2)

[4] = after 2 week-repeated instillation of 1%, 3%, 10% ophthalmic suspensions

Row | Structure (SMILES) | Histopathological examination of the eyes, in words [1, 4] | Observation of ocular irritation of anterior segment of the eye and lens observation, in words [1, 4] | Safety of the ophthalmic suspensions, in words ([1]; rabbit, in vivo) | Lens elasticity improvement, in words (lens [2]; 1% sample instilled once-daily, by duration of instillation) | Lens elasticity improvement (lens [2]; 1 day) [μm] | Lens elasticity improvement (lens [2]; 3 days) [μm] | Lens elasticity improvement (lens [2]; 7 days) [μm] | Lens elasticity improvement (lens [2]; 10 days) [μm] | Lens elasticity improvement (lens [2]; 14 days) [μm] | Lens elasticity improvement (lens [3]) [μm]
1 | C[C@H](CCC(=O)O)[C@H]1CC[C@H]2[C@@H]3[C@@H](O)C[C@@H]4C[C@H](O)CC[C@]4(C)[C@H]3CC[C@]12C [ursodeoxycholic acid, 3α,7β-Dihydroxy-5β-cholan-24-oic acid] | no abnormal findings | no abnormal findings | highly safe | showed definitely an improvement in lens elasticity after instillation for 3 days | 9.6 | 21.1 | 27.4 | 38.1 | 34.2 | 
2 | C[N+](C)(C)CCOC(=O)CCCC[C@@H]1CCSS1 [EV06, lipoic acid choline ester] |  |  |  |  |  |  |  |  |  | 38.2
